Experimental data: patent US5391540A, “Substituted pyridine compounds” (Rohm and Haas Company, priority 1993, dated 1995)

Experiments:
Format in all cases: in vivo
Dobr = test: plant injury after spraying emerged plants (Table D)
Description: Topsoil (silt loam) is sieved through a screen having 1.27 cm openings. In some of the tests the soil was mixed with fertilizer (1225 g/cu. m of 12/5/9 containing isobutylidene diurea), while in other tests the fertilizer was omitted. This mixture is steam sterilized and then placed in aluminum pans 6.985 cm deep having ten holes in the bottom each 0.635 cm in diameter. The soil mixture is compacted to a depth of 1.27 cm. from the top of the pan. A predetermined number of seeds of each of several dicotyledonous and monocotyledonous annual plant species and/or vegetative propagules for the perennial plant species are placed on the soil and pressed into the soil surface. The seeds and/or vegetative propagules are covered with 1.27 cm of a mixture of 50% topsoil and 50% of a mixture of Canadian sphagnum peat moss, vermiculite and a wetting agent. The pans are then placed on a capillary mat on a greenhouse bench and subirrigated as needed. After the plants reach the desired stage (9 to 14 days, 1 to 3 true leaf stage), each pan (except the control pans) is removed to a spraying chamber and sprayed by means of an atomizer, operating at a spray pressure of 170.3 kPa ([…]) at the application rates noted in Table D. In the spray solution is an amount of an emulsifying agent mixture (35% butylamine salt of dodecylbenzenesulfonic acid and 65% tall oil condensed with ethylene oxide in the ratio of 11 mols of ethylene oxide/mol of tall oil) to give a spray solution or suspension. The spray solution or suspension contains a sufficient amount of the candidate chemical in order to give application rates of the active ingredient corresponding to those shown in Table D below while applying a total amount of solution or suspension equivalent to 1870 L/Ha (200 gallons/acre). The pans are returned to the greenhouse and watered as before and the injury to the plants as compared to the control pans is observed at approximately 10-14 days (usually 11 days).
(§1) In the following Table D the legends used to identify the plant species are the same as those used in the preceding Table B.

Corn = test: as above; set-up: scale not given here
Description: (§2) Topsoil (silt loam) is sieved through a screen having 1.27 cm openings. […] This mixture is steam sterilized and then placed in aluminum pans 6.985 cm deep having ten holes in the bottom each 0.635 cm in diameter. The soil mixture is compacted to a depth of 1.27 cm. from the top of the pan. A predetermined number of seeds of each of several dicotyledonous and monocotyledonous annual plant species and/or vegetative propagules for the perennial plant species are placed on the soil and pressed into the soil surface. The seeds and/or vegetative propagules are covered with 1.27 cm of a mixture of 50% topsoil and 50% of a mixture of Canadian sphagnum peat moss, vermiculite and a wetting agent. The pans are then placed on a capillary mat on a greenhouse bench and subirrigated as needed.
as §1

Grft = test: as above; set-up: scale not given here
Description: as §2, §1

Cobu = test: as above; set-up: scale not given here
Description: as §2, §1

Lacg = test: as above; set-up: scale not given here
Description: as §2, §1

Whez = test: as above; set-up: scale not given here
Description: as §2, §1

Bygr = test: as above; set-up: scale not given here
Description: as §2, §1

Sobe = test: as above; set-up: scale not given here
Description: as §2, §1

Prmi = test: as above; set-up: scale not given here
Description: as §2, §1

Rice = test: as above; set-up: scale not given here
Description: as §2, §1

Morningglory = test: Pre-emergent herbicidal activity (Table A); conditions: Ipomoea, pre-emergence, Mogl, 11.2 kg/ha, 10-14 days, read-out: herbicidal rating (% inhibition)
In short: (§3)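 Percent inhibition per species, scored on a rating scale, after pre-emergent soil incorporation: test compound in acetone or water carrier mixed into cover soil, layered over seeded topsoil or vegetative propagules.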

Velvetleaf = test: Pre-emergent herbicidal activity (Table A); conditions: Abutilon theophrasti, pre-emergence, Vele, 11.2 kg/ha, 10-14 days, read-out: herbicidal rating (% inhibition)
In short: as §3

Cocklebur = test: Pre-emergent herbicidal activity (Table A); conditions: Xanthium strumarium, pre-emergence, Cobu, 11.2 kg/ha, 10-14 days, read-out: herbicidal rating (% inhibition)
In short: as §3

Barnyardgrass = test: Pre-emergent herbicidal activity (Table A); conditions: Echinochloa crus-galli, pre-emergence, Bygr, 11.2 kg/ha, 10-14 days, read-out: herbicidal rating (% inhibition)
In short: as §3

Yellow Nutsedge = test: Pre-emergent herbicidal activity (Table A); conditions: Cyperus, pre-emergence, Yens, 11.2 kg/ha, 10-14 days, read-out: herbicidal rating (% inhibition)
In short: as §3

Downy Brome = test: Pre-emergent herbicidal activity (Table A); conditions: Bromus tectorum, pre-emergence, Dobr, 11.2 kg/ha, 10-14 days, read-out: herbicidal rating (% inhibition)
In short: as §3

## COC(=O)c1c(OC)nc(C(F)(F)F)c(C2SCCS2)c1CC(C)C [Compound 93, 3-pyridinecarboxylic acid, 5-(1,3-dithiolan-2-yl)-2-methoxy-4-(2-methylpropyl)-6-(trifluoromethyl)-, methyl ester]
Dobr; 0.0701 kg/ha
  plant injury rating, Dobr: 0
Dobr; 0.2803 kg/ha
  plant injury rating, Dobr: 0
Dobr; 1.1210 kg/ha
  plant injury rating, Dobr: 0
Dobr; 5.6050 kg/ha
  plant injury rating, Dobr: 0
Corn; 0.0701 kg/ha
  plant injury rating, Corn: 0
Corn; 0.2803 kg/ha
  plant injury rating, Corn: 3
Corn; 1.1210 kg/ha
  plant injury rating, Corn: 3
Corn; 5.6050 kg/ha
  plant injury rating, Corn: 3
Grft; 0.0701 kg/ha
  plant injury rating, Grft: 0
Grft; 0.2803 kg/ha
  plant injury rating, Grft: 0
Grft; 1.1210 kg/ha
  plant injury rating, Grft: 0
Grft; 5.6050 kg/ha
  plant injury rating, Grft: 1
Cobu; 0.0701 kg/ha
  plant injury rating, Cobu: 0
Cobu; 0.2803 kg/ha
  plant injury rating, Cobu: 0
Cobu; 1.1210 kg/ha
  plant injury rating, Cobu: 2
Cobu; 5.6050 kg/ha
  plant injury rating, Cobu: 3
Lacg; 0.2803 kg/ha
  plant injury rating, Lacg: 2
Lacg; 1.1210 kg/ha
  plant injury rating, Lacg: 3
Lacg; 5.6050 kg/ha
  plant injury rating, Lacg: 3
Whez; 0.0701 kg/ha
  plant injury rating, Whez: 0
Whez; 0.2803 kg/ha
  plant injury rating, Whez: 0
Whez; 1.1210 kg/ha
  plant injury rating, Whez: 0
Whez; 5.6050 kg/ha
  plant injury rating, Whez: 0
Bygr; 0.0701 kg/ha
  plant injury rating, Bygr: 0
Bygr; 0.2803 kg/ha
  plant injury rating, Bygr: 0
Bygr; 1.1210 kg/ha
  plant injury rating, Bygr: 0
Bygr; 5.6050 kg/ha
  plant injury rating, Bygr: 2
Sobe; 0.0701 kg/ha
  plant injury rating, Sobe: 0
Sobe; 0.2803 kg/ha
  plant injury rating, Sobe: 1
Sobe; 1.1210 kg/ha
  plant injury rating, Sobe: 2
Sobe; 5.6050 kg/ha
  plant injury rating, Sobe: 3
Prmi; 0.0701 kg/ha
  plant injury rating, Prmi: 0
Prmi; 0.2803 kg/ha
  plant injury rating, Prmi: 0
Prmi; 1.1210 kg/ha
  plant injury rating, Prmi: 0
Prmi; 5.6050 kg/ha
  plant injury rating, Prmi: 0
Rice; 0.0701 kg/ha
  plant injury rating, Rice: 0
Rice; 0.2803 kg/ha
  plant injury rating, Rice: 0
Rice; 1.1210 kg/ha
  plant injury rating, Rice: 0
Rice; 5.6050 kg/ha
  plant injury rating, Rice: 0
Morningglory
  inhibition at 11200 g/ha: 75 to 100%
Velvetleaf
  inhibition at 11200 g/ha: 75 to 100%
Cocklebur
  inhibition at 11200 g/ha: 0 to 24%
Barnyardgrass
  inhibition at 11200 g/ha: 75 to 100%
Yellow Nutsedge
  inhibition at 11200 g/ha: 0 to 24%
Downy Brome
  inhibition at 11200 g/ha: 75 to 100%
